From patent US20130030025A1, “USE OF POTASSIUM CHANNEL BLOCKERS TO TREAT CEREBRAL PALSY” (priority 2011, published 2013)

How the values were obtained:
[1] = system: middle cerebral artery occlusion (MCAO) in rats; test: Cylinder test, total movement after MCAO; type: in vivo, Sprague Dawley rats
Method: The Y axis represents the behavioral score. […] Treatment groups: Dosing was started 4 weeks after pMCAO surgery. During these 4 weeks, weekly behavioral assessments, as defined below, were performed. Two dose levels of 4-AP plus vehicle control were assessed, with treatment starting at 4 weeks after ischemic event. All dosing was via gastric gavage, volume not to exceed 2 mL/kg. Animals were given the first dose and behavioral assessments were performed starting 60 minutes after dosing. Animals then received the second dose that day at the appropriate time and b.i.d (preferably every 12 hours) thereafter for 2 more days (3 total days of dosing, 5 total doses). One hour after the 5th dose, animals were subjected to behavioral assessments as defined below. Following the final behavioral assessment, drug was withdrawn for 10 or 11 days, behavior was re-assessed, and then animals were re-challenged with a cross-over treatment (Phase II of Table 1B) as described in Tables 1A, 1B, followed by the same behavioral testing and dosing regimen. This cross-over was repeated one more time as well (Phase III of Table 1B) (see FIG. 2). Behavioral test details: Behavioral evaluations were done by investigators blinded to treatment assignment. As described above, behavioral assessments were timed exactly with dosing times. Animals were given the first dose, behavioral assessments were performed starting 60 minutes later, and blood was collected 90 minutes after dosing. Animals then received the second dose that day at the appropriate time and b.i.d (preferably every 12 hours) thereafter for 2 more days (3 total days of dosing, 5 total doses). One hour after the 5th dose, animals were subjected to behavioral testing. Following the final behavioral assessment, drug was withdrawn for 10 or 11 days, behavior was re-assessed, and then animals were re-challenged with a cross-over treatment as described in Tables 1A, 1B, and FIG. 2, followed by the same behavioral testing and dosing regimen. Evaluation was performed at Day -1 (pre-operation), Day 7, Day 21, Day 30, Day 32, Day 44, Day 46, Day 58, Day 60. This test assessed limb use asymmetry. Rats were placed in a transparent cylinder (20 cm in diameter and 30 cm in height) for 3-6 minutes. A mirror was placed behind the cylinder to determine forelimb movements when animal was turned away from the camera. […] Simultaneous use of both left and right forelimbs while contacting the wall during a full rear was also scored. A total number of 20 forelimb placings were counted during a trial. Data was expressed in terms of percent use of the non-impaired and or impaired forelimb relative to the total number of limb use observations for wall movements.

[2] = Body weight of animals after MCAO; type: in vivo, Sprague Dawley rats
Method: Animals: 45 male Sprague Dawley Rats, 300-400 g (obtained from Charles River Laboratories, which arrived 7-10 days before surgery at 250-275 g) were used.
Treatment groups: Dosing was started 4 weeks after pMCAO surgery. During these 4 weeks, weekly behavioral assessments, as defined below, were performed. Two dose levels of 4-AP plus vehicle control were assessed, with treatment starting at 4 weeks after ischemic event. All dosing was via gastric gavage, volume not to exceed 2 mL/kg. Animals were given the first dose and behavioral assessments were performed starting 60 minutes after dosing. Animals then received the second dose that day at the appropriate time and b.i.d (preferably every 12 hours) thereafter for 2 more days (3 total days of dosing, 5 total doses). One hour after the 5th dose, animals were subjected to behavioral assessments as defined below. Following the final behavioral assessment, drug was withdrawn for 10 or 11 days, behavior was re-assessed, and then animals were re-challenged with a cross-over treatment (Phase II of Table 1B) as described in Tables 1A, 1B, followed by the same behavioral testing and dosing regimen. This cross-over was repeated one more time as well (Phase III of Table 1B) (see FIG. 2).

[3] = system: patients with multiple sclerosis; details: p<0.05; cited from earlier work
[4] = Group I, D30, first dosing phase (high dose, inferred)
[5] = Group I, D32, first dosing phase (high dose, inferred)
[6] = Group I, D44, second dosing phase (low dose, inferred)
[7] = Group I, D46, second dosing phase (low dose, inferred)

Compound: Nc1ccncc1 [4-AP, 4-aminopyridine]
- Cylinder Test (Total Movement), Mean [1, 4]: 9.47
- Cylinder Test (Total Movement), Mean [1, 5]: 16.20
- Cylinder Test (Total Movement), Mean [1, 6]: 39.20
- Cylinder Test (Total Movement), Mean [1, 7]: 23.87
- Cylinder Test (Total Movement), Mean ([1]; Group II, D30, N 15): 46.87
- Cylinder Test (Total Movement), Mean ([1]; Group II, D32, N 15): 36.20
- Cylinder Test (Total Movement), Mean ([1]; Group II, D58, N 15): 11.60
- Cylinder Test (Total Movement), Mean ([1]; Group II, D60, N 15): 12.93
- Cylinder Test (Total Movement), Mean ([1]; Group III, D44, N 15): 19.13
- Cylinder Test (Total Movement), Mean ([1]; Group III, D46, N 15): 18.73
- Cylinder Test (Total Movement), Mean ([1]; Group III, D58, N 15): 32.33
- Cylinder Test (Total Movement), Mean ([1]; Group III, D60, N 15): 26.67
- Weight (g), Mean [2, 4]: 453.1 g
- Weight (g), Mean [2, 5]: 436.3 g
- Weight (g), Mean [2, 6]: 476.2 g
- Weight (g), Mean [2, 7]: 471.1 g
- Weight (g), Mean ([2]; Group II, D30, first dosing phase (low dose, inferred)): 446.0 g
- Weight (g), Mean ([2]; Group II, D32, first dosing phase (low dose, inferred)): 438.1 g
- Weight (g), Mean ([2]; Group II, D58, third dosing phase (high dose, inferred)): 500.9 g
- Weight (g), Mean ([2]; Group II, D60, third dosing phase (high dose, inferred)): 483.0 g
- Weight (g), Mean ([2]; Group III, D44, second dosing phase (high dose, inferred)): 471.9 g
- Weight (g), Mean ([2]; Group III, D46, second dosing phase (high dose, inferred)): 451.0 g
- Weight (g), Mean ([2]; Group III, D58, third dosing phase (low dose, inferred)): 494.9 g
- Weight (g), Mean ([2]; Group III, D60, third dosing phase (low dose, inferred)): 485.1 g
- leg strength (LEMMT) relative to placebo [3]: statistically significantly improved
